In patent US20050101671A1, “Compounds and compositions for delivering active agents” (Emisphere Technologies, Inc., priority 1995, published 2005):

How the values were obtained:
[1] = In vivo delivery of heparin by oral administration in rats, APTT (Table 6); set-up: species or system rat; conditions: heparin 100 mg/kg
Method: In a test tube, 900 mg of carrier were dissolved in 3 mL of propylene glycol, and 0.299 g of sodium heparin was dissolved in 3 mL of water. The solutions were mixed by vortex. Sodium hydroxide (10M) was added to the resulting mixture until a solution was obtained. The pH was then adjusted to 7.4±0.5 with concentrated hydrochloric acid, and the final solution was sonicated at 40° C. for 30 minutes.
A group of fasted, conscious rats were administered the dosing compositions by oral gavage. Blood samples were collected by cardiac puncture following the administration of ketamine (44 mg/kg). Heparin activity was determined by utilizing the activated partial thromboplastim time (APTT) according to the method of Henry, J. B., Clinical Diagnosis and Management by Laboratory Methods; Philadelphia. Pa.; W B Saunders (1979).
Heparin (100 mg/kg) was administered by oral gavage to rats, and heparin activity was determined according to the procedure of Example 44.

[2] = Delivery agent enhancement of rhGH bioavailability, subcutaneous administration in rats (Table 2); type: in vivo, rat; conditions: no delivery agent (0.0 mg/kg), rhGH alone (Comparative Example 16A)
Method: The delivery agents were reconstituted with distilled water and adjusted to pH 7.2-8.0 with either aqueous hydrochloric acid or aqueous sodium hydroxide. A stock solution of rhGH was prepared by mixing rhGH, D-mannitol and glycine and dissolving this mixture in 2% glycerol/water. The stock solution was then added to the delivery agent solution. Several delivery agent to active agent ratios were studied.
Male Sprague-Dawley rats weighing 200-250 g were fasted for 24 hours and administered ketamine (44 mg/kg) and chlorpromazine (1.5 mg/kg) 15 minutes prior to dosing. The rats were administered one of the dosing solutions described above by subcutaneous injection, intranasal instillation, or sublingual instillation. Blood samples were collected serially from the tail artery for serum calcium concentration determination or serum rhGH concentrations. The dose-of rhGH administered in these experiments was 0.
Serum rhGH concentrations were quantified by an rhGH enzyme immunoassay test kit.

[3] = In vivo delivery of rhGH in rats (Table 1), serum rhGH by ELISA; set-up: species or system rat; conditions: oral, no carrier, rhGH 6 mg/kg
Method: Dosing compositions were prepared by mixing the modified amino acids and recombinant human growth hormone (rhGH) as listed in Table 1 below in a phosphate buffer solution at a pH of about 7-8.
Rats were administered the dosing composition by sublingual, oral gavage, intraduodenal administration, or colonic administration. Delivery was evaluated by using an ELISA assay for rhGH from Medix Biotech, Inc. For intracolonic administration, a sample was prepared and dosed to fasted rats at 25 mg/kg of carrier in a buffered solution containing propylene glycol (0-50%) and 1 mg/kg rhGH.

## O=C(O)CCCCCCCNC(=O)/C=C/c1ccccc1F [Compound XII]
[1]; carrier 300 mg/kg
  Mean Peak APTT: 49.53 ± 17.1 s

## rhGH: recombinant human growth hormone, active agent dosed alone as comparative example
[2]
  Peak Serum [rhGH]: 4 ± 2 ng/mL
[3]
  Mean Peak Serum Levels of rhGH: <10 ± 10 ng/mL

## Heparin [reference compound]
[1]; no carrier
  Mean Peak APTT: 20.7 ± 0.17 s
